Source: patent publication US20130156857A1, “Pharmaceutical Compositions Containing Diacerein” (TWI BIOTECHNOLOGY, INC., priority 2008, published 2013)
Values after ≈ are worked out from the molar mass of the structure shown. Where two headings read alike, the source gives them in different places.

Columns and labels:
[1] = in vivo; cited from earlier work
[2] = Solubility and stability of diacerein at ambient temperature for one hour; assay type: physicochemical
Description: (§1) The tables below indicate the solubility and stability of diacerein in buffer solutions with different pH values. […] The degradation products including rhein increase at a pH above 5. The poor stability of diacerein in the intestinal environment may result in incomplete absorption and cause poor and variable bioavailability. Moreover, one of the increased degradants in the intestinal environment, rhein, has been suspected to be a major factor in stimulating colon mucosa and results in diarrhea. Accordingly, methods to stabilize diacerein during gastro-intestinal absorption might improve its bioavailability as well as the side effect of diarrhea. The stabilization methods for use with diacerein may include the addition of acidifying or buffering agents or complexation with cyclodextrins.

[3] = cited from earlier work
[4] = cited from earlier work; remark: listed apart in the source
[5] = Solubility and stability pH profile of diacerein at ambient temperature for 48 hours; assay type: physicochemical; settings: for Proportion of Diacerein and its degradants: Diacerein / solubility at 48 h: 48 hours; for solubility at 48 h: thermodynamic from solid, read-out: Total solubility
Description: as §1

[6] = cited from earlier work; remark: listed apart in the source

CC(=O)Oc1cccc2c1C(=O)c1c(OC(C)=O)cc(C(=O)O)cc1C2=O [Diacerein, 4,5-bis(acetyloxy)-9,10-dioxo-2-anthracene carboxylic acid]
conversion before reaching the systemic circulation [1]: entirely converted into rhein
Proportion of Diacerein and its degradants: Diacerein ([2]; final pH 6.55*): 90%
Proportion of Diacerein and its degradants: Diacerein ([2]; final pH 6.70*): 83%
Oral bioavailability [3]: 35-56%
bioavailability with feeding ([3]; oral, feeding): 43-70%
solubility in water [4]: practically insoluble
Proportion of Diacerein and its degradants: Diacerein ([5]; 0.01N HCl, final pH 1.98, ambient temperature): 100%
Proportion of Diacerein and its degradants: Diacerein ([5]; 50 mM NaH2PO4, final pH 3.03, ambient temperature): 100%
Proportion of Diacerein and its degradants: Diacerein ([5]; 50 mM NaH2PO4, final pH 4.17, ambient temperature): 100%
Proportion of Diacerein and its degradants: Diacerein ([5]; 50 mM NaH2PO4, final pH 5.04, ambient temperature): 60%
Proportion of Diacerein and its degradants: Diacerein ([5]; 50 mM NaH2PO4, final pH 5.97, ambient temperature): 77%
Proportion of Diacerein and its degradants: Diacerein ([5]; 50 mM NaH2PO4, final pH 6.55, ambient temperature): 45%
Proportion of Diacerein and its degradants: Diacerein ([5]; 50 mM NaH2PO4, final pH 6.70, ambient temperature): 34%
solubility at 48 h ([5]; 50 mM NaH2PO4 buffer, aqueous buffer, 50 mM NaH2PO4, final pH 3.03, ambient temperature): 0.35 µg/mL (≈ 0.95 µM)
solubility at 48 h ([5]; 50 mM NaH2PO4 buffer, aqueous buffer, 50 mM NaH2PO4, final pH 4.17, ambient temperature): 0.43 µg/mL (≈ 1.17 µM)
Proportion of Diacerein and its degradants: Diacerein ([5]; 0.1N HCl, final pH 1.17, ambient temperature): 100%
Proportion of Diacerein and its degradants: Diacerein ([5]; Water, final pH 5.79, ambient temperature): 90%
solubility at 48 h ([5]; buffer solution (0.01N HCl), simulated gastric fluid, 0.01N HCl, final pH 1.98, ambient temperature): 0.15 µg/mL (≈ 0.407 µM)
solubility in buffer solution ([5]; pH below 4.17): relatively low
stability in buffer solution ([5]; pH below 4.17): stable
solubility at 48 h ([5]; simulated gastric fluid, 0.1N HCl, final pH 1.17, ambient temperature): 0.17 µg/mL (≈ 0.462 µM)
diarrhea or soft stools occurred in the patients ([6]; 3-year clinical study, diacerein twice a day with meals): up to 30%
severity of diarrhea ([6]; occurs within the first two weeks of treatment): mild-to-moderate

O=C(O)c1cc(O)c2c(c1)C(=O)c1cccc(O)c1C2=O [Rhein]
conjugated in the liver to rhein glucuronide [1]: 60%
conjugated in the liver to rhein sulfate [1]: 20%
eliminated by the renal route [1]: 20%
